# Where two headings read alike, the source gives them in different places.
# Assays:
# BC-3 = assay: Cell growth assay; format: cell-based; settings: Homo sapiens, 72 h; BC-3, RAF WT, RAS WT, 3-day; read-out: gIC50
# Procedure, shortened: (§1)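 We assessed proliferation over 72 h using CellTiter-Glo, reading at the start and end. IC50 for growth inhibition (gIC50) was then determined.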
# GCT = assay: Cell growth assay; format: cell-based; settings: Homo sapiens, 72 h, BRAF(V600E), RAS WT, 3-day, read-out: gIC50
# Procedure, shortened: as §1
# HMCB = assay: Cell growth assay; format: cell-based; settings: Homo sapiens, 72 h, RAF WT, RAS WT, 3-day, read-out: gIC50
# Procedure, shortened: as §1
# Hep3B = assay: Cell growth assay; format: cell-based; settings: Homo sapiens, 72 h, RAF WT, RAS WT, 3-day, read-out: gIC50
# Procedure, shortened: as §1
# JRT3-T35 = assay: Cell growth assay; format: cell-based; settings: Homo sapiens, J-RT3-T3-5, 72 h; JRT3-T35, RAF WT, RAS WT, 3-day; read-out: gIC50
# Procedure, shortened: as §1
# MALME-3M = assay: Cell growth assay; format: cell-based; settings: Homo sapiens, 72 h, BRAF(V600E), RAS WT, 3-day, read-out: gIC50
# Procedure, shortened: as §1
# MDA-MB-175 VII = assay: Cell growth assay; format: cell-based; settings: Homo sapiens, 72 h, RAF WT, RAS WT, 3-day, read-out: gIC50
# Procedure, shortened: as §1
# MDA-MB-231 = assay: Cell growth assay; format: cell-based; settings: Homo sapiens, 72 h; MDA-MB-231, BRAF(G464V), KRAS(G13D), 3-day; read-out: gIC50
# Procedure, shortened: as §1
# NCI-H2052 = assay: Cell growth assay; format: cell-based; settings: Homo sapiens, 72 h; NCI-H2052, RAF WT, RAS WT, 3-day; read-out: gIC50
# Procedure, shortened: as §1
# RKO = assay: Cell growth assay; format: cell-based; settings: Homo sapiens, 72 h, BRAF(V600E), RAS WT, 3-day, read-out: gIC50
# Procedure, shortened: as §1
# SCC-15 = assay: Cell growth assay; format: cell-based; settings: Homo sapiens, 72 h; SCC-15, RAF WT, RAS WT, 3-day; read-out: gIC50
# Procedure, shortened: as §1
# SN12C = assay: Cell growth assay; format: cell-based; settings: Homo sapiens, 72 h, RAF WT, RAS WT, 3-day, read-out: gIC50
# Procedure, shortened: as §1
# SNB-19 = assay: Cell growth assay; format: cell-based; settings: Homo sapiens, 72 h; SNB-19, RAF WT, RAS WT, 3-day; read-out: gIC50
# Procedure, shortened: as §1
# SNU-16 = assay: Cell growth assay; format: cell-based; settings: Homo sapiens, 72 h; SNU-16, RAF WT, RAS WT, 3-day; read-out: gIC50
# Procedure, shortened: as §1
# UACC-257 = assay: Cell growth assay; format: cell-based; settings: Homo sapiens, 72 h; UACC-257, BRAF(V600E), RAS WT, 3-day; read-out: gIC50
# Procedure, shortened: as §1
# YAPC = assay: Cell growth assay; format: cell-based; settings: Homo sapiens, 72 h, RAF WT, RAS WT, 3-day, read-out: gIC50
# Procedure, shortened: as §1
# A375 = assay: Cell growth assay; format: cell-based; settings: Homo sapiens, A-375, 72 h; A375, BRAF(V600E), RAS WT, 3-day; read-out: gIC50
# Method: (§2) Growth was measured with CellTiter-Glo® (Promega) reagent per the manufacturer’s protocol, using a PerkinElmer EnVision™ reader at t = 0 and 72 h. IC50 values for cell growth inhibition (gIC50) were determined.
# (§3) (PDF) Click here for additional data file.
# Supplementary file pone.0067583.s006.pdf: Table S3 Enzymatic and cellular activity of tool inhibitors used in the rat skin lesion formation study. Activity of GSK2366297A (BRAF tool inhibitor) and GSK2091975 (MEK tool inhibitor, active form of prodrug GSK2091976) were measured against their respective enzyme targets as described in the Materials and Methods section. Cellular activity was determined for each by inhibition of ERK phosphorylation in SK-MEL-28 cells and growth of A375 cells, both of which express BRAF^V600E. (PDF) Click here for additional data file.
# LIMK1 (h) = target: T1, LIMK1 (h) (Homo sapiens, UniProt P53667); assay: Kinase panel (Millipore) enzyme activity; format: biochemical
# T1 construct: purchased Millipore
# T1 sequence (P53667 whole entry): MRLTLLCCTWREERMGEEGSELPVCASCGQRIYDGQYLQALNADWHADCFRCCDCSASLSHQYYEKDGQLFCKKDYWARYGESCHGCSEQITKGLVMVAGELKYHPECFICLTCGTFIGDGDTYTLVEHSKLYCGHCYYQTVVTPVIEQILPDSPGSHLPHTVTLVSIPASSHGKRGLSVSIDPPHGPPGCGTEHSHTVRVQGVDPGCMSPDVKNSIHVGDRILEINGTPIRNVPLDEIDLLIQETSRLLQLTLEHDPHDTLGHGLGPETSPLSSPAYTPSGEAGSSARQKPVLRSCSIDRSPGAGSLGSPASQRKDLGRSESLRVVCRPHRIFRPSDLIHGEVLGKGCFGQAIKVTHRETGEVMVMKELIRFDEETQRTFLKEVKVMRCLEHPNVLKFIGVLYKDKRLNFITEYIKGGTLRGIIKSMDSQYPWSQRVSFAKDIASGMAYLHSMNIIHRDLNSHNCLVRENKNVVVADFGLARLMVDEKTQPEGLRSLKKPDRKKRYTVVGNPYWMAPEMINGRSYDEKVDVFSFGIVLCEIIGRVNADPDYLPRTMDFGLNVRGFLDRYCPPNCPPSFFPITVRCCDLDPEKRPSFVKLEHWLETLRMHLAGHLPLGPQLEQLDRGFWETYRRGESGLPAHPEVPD
# Description: as §3
# ALK5 = ALK5 (Homo sapiens, UniProt P36897); assay: ALK5 cell-based assay
# ALK5, sequence (P36897 34-503, species assumed): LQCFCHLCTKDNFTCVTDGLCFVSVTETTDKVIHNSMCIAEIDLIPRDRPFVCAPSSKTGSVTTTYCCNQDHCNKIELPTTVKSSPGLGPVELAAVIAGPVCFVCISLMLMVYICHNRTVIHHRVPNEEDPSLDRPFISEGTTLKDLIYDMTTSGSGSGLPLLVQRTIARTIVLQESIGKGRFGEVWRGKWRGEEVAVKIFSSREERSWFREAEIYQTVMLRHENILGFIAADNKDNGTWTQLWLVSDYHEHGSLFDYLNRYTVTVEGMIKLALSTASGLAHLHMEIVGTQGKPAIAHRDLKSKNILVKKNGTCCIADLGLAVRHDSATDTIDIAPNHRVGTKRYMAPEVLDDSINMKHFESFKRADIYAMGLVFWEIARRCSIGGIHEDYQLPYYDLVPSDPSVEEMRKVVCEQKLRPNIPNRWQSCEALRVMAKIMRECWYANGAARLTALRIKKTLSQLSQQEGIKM
# [1] = system: phospho-MEK1/2 (pMEK) in ES-2 ovarian carcinoma (BRAF^V600E) cells; assay: Western blot, pMEK in ES-2 cells; format: cell-based; settings: Homo sapiens; ES-2 cells (BRAF^V600E), 1 h, immunoblot; read-out: IC50 for pMEK inhibition
# Method: Cells were lysed in 25 mM Tris-HCl pH 7.5, 2 mM EDTA, 2 mM EGTA, 1% Triton X-100, 0.1% SDS, 50 mM sodium-β-glycerophosphate, 2 mM Na3VO4, 12.5 mM sodium pyrophosphate, 2× Complete EDTA-free mini protease inhibitor tablets (Roche), 2× phosphatase inhibitor cocktails I and II (Sigma-Aldrich). Protein concentrations were determined by Bio-Rad DC™ or dye-based protein assays and lysates were resolved by SDS-PAGE (Invitrogen NuPAGE®) and transferred to PVDF membranes. Membranes were blocked with Odyssey® (LI-COR Biosciences) blocking buffer and incubated with primary antibodies overnight at 4°C. Blots were washed with PBS containing 0.1% Tween-20, incubated with secondary antibodies, and washed again prior to signal detection on a LI-COR Odyssey® reader.
# Signals were quantified and used to determine IC50 values. (PPTX) Click here for additional data file.
# 195 tumor cell lines = assay: Cell growth assay, summary over 195 tumor cell lines; format: cell-based; settings: Homo sapiens, read-out: gIC50
# Method: as §2
# The functional selectivity of dabrafenib was evaluated by measuring the growth of a range of human tumor cell lines of different genetic mutation status.
# as §3
# [2] = system: A375P tumors (BRAF^V600E)
# Description: Cells were implanted subcutaneously in female CD1 nu/nu mice and grown to form tumors. […] Tumor volumes were estimated twice weekly from two-dimensional caliper measurements using the prolate ellipsoid equation [drawing 1] , where v = volume (mm^3), l = length (mm), and w = width (mm), and reported as means for n of 7 or 8 mice per group. Tumor growth inhibition represents the percentage volume differential between treated and control tumors at the time when vehicle-treated tumors exceeded a volume of 1 000 mm^3. Partial regression is defined as a 50% decrease from an individual tumor's starting volume for at least 1 week (three consecutive measurements). […] All efforts were made to minimize suffering and mice were euthanized by carbon dioxide asphyxiation if at least one death occurred per treatment group, if an animal appeared moribund or in distress, or if the tumor became ulcerated.
# Treatment continued until the mean tumor volume of each group reached 1 200 mm^3 or one death occurred. Mean tumor volumes are plotted with their standard error mean and complete (CR) or partial (PR) regressions are indicated for each group of n = 8 mice after 14 days of treatment.
structure (smiles),measurement,setting,value
CC(C)(C)c1nc(-c2cccc(NS(=O)(=O)c3c(F)cccc3F)c2F)c(-c2ccnc(N)n2)s1 [dabrafenib],IC50,BC-3,277 nM
same,IC50,GCT,> 10000 nM
same,IC50,HMCB,> 10000 nM
same,IC50,Hep3B,> 10000 nM
same,IC50,JRT3-T35,295 nM
same,IC50,MALME-3M,1 nM
same,IC50,MDA-MB-175 VII,> 10000 nM
same,IC50,MDA-MB-231,> 10000 nM
same,IC50,NCI-H2052,> 10000 nM
same,IC50,RKO,2520 nM
same,IC50,SCC-15,> 10000 nM
same,IC50,SN12C,> 10000 nM
same,IC50,SNB-19,> 10000 nM
same,IC50,SNU-16,> 10000 nM
same,IC50,UACC-257,6 nM
same,IC50,YAPC,> 10000 nM
same,IC50,A375,4 nM
same,IC50,LIMK1 (h),15 nM
same,ALK5 inhibition in cell-based assay,ALK5,absence of ALK5 inhibition
same,IC50,[1],6 nM
same,IC50,195 tumor cell lines; 133 (88%) of the 152 RAS/RAF wild-type and all 18 mutant RAS cell lines,> 10000 nM
same,IC50,"195 tumor cell lines; A673, 3 of the BRAF^V600E cell lines (GCT, RKO, A673)",> 2000 nM
same,IC50,195 tumor cell lines; sixteen (80%) of the 20 cell lines encoding BRAF^V600E,< 200 nM
same,period for which tumor growth inhibition was observed,[2]; 30 mg/kg for 33 days,14 days
same,period for which tumor growth inhibition was observed,[2]; 300 mg/kg for 43 days,20 days

# Reference: PMC3701070 (PLoS ONE, 2013)
